# From patent publication US20250179073A1, “TRICYCLIC HETEROCYCLE COMPOUNDS AS IAP ANTAGONISTS” (Ascentage Pharma (Suzhou) Co., Ltd., priority 2022, published 2025)
# Test system: MDA-MB-231 cells
# Experiment: Cell proliferation assay (CellTiter-Glo), MDA-MB-231
# Assay type: cell-based
# Conditions: Homo sapiens, MDA-MB-231, 72 h, 72 h treatment, Celltiter-Glo luminescence
# Experimental: Example 238: Cell Proliferation Assay
# MDA-MB-231 and EVSA-T cells (10000 cells/well) were plated onto 96-well plates (Corning, Cat #3917) in 95 μL of medium (RPMI-1640 containing 10% FBS and MEM containing 10% FBS, respectively). Compounds with various concentrations ([…]) were added to the wells. After treatment for 72 h, 30 μL of Celltiter-Glo reagent (Promega, Cat #G7573) was added and incubated at room temperature for 15 min, then the luminescent signal was determined using a microplate reader (Biotek, SynergyH1). The inhibitor dose-response curves were analyzed using normalized IC50 regression curve fitting with control based normalization.
row,SMILES,IC50
1,"C[C@@H]1CN(CC(=O)N2CC(C)(C)c3c2cc(Cc2ccc(F)cc2)c2nc(C(F)(F)F)cn32)C(Cn2ccnc2C(F)(F)F)CN1 (stereo in doubt) [Compound 177, 1-(4-(4-fluorobenzyl)-8,8-dimethyl-2-(trifluoromethyl)-7,8-dihydro-6H-imidazo[1,2-a]pyrrolo[2,3-e]pyridin-6-yl)-2-((2S,5R)-5-methyl-2-((2-(trifluoromethyl)-1H-imidazol-1-yl)methyl)piperazin-1-yl)ethan-1-one]",320 nM
2,"C[C@@H]1CN(CC(=O)N2CC(C)(C)c3c2cc(Cc2ccc(F)cc2)c2ncnn32)C(CN2CCN(CC#N)C3CC32)CN1 (stereo in doubt) [Compound 213, 2-(5-(((2S,5R)-1-(2-(4-(4-fluorobenzyl)-8,8-dimethyl-7,8-di hydro-6H-pyrrolo[2,3-e][1,2,4]triazolo[1,5-a]pyridin-6-yl)-2-oxoethyl)-5-methylpiperazin-2-yl)methyl)-2,5-diazabicyclo[4.1.0]heptan-2-yl)acetonitrile]",560 nM
3,"C[C@@H]1CN(CC(=O)N2CC(C)(C)c3c2cc(C(O)c2ccc(F)cc2F)c2ncnn32)[C@@H](CN2CCOC[C@H]2C)CN1 (stereo partly drawn) [Compound 50, 1-(4-((2,4-difluorophenyl)(hydroxy)methyl)-8,8-dimethyl-7,8-dihydro-6H-pyrrolo[2,3-e][1,2,4]triazolo[1,5-a]pyridin-6-yl)-2-((2R,5R)-5-methyl-2-(((R)-3-methylmorpholino)methyl)piperazin-1-yl)ethan-1-one]",> 10000 nM
4,"C[C@@H]1CN(CC(=O)N2CC(C)(C)c3c2cc(Cc2ccc(F)cc2)c2c(Cl)cnn32)[C@@H](CN2CCOC[C@H]2C)CN1 [Compound 106, 1-(3-chloro-4-(4-fluorobenzyl)-8,8-dimethyl-7,8-dihydro-6H-pyrazolo[1,5-a]pyrrolo[2,3-e]pyridin-6-yl)-2-((2R,5R)-5-methyl-2-(((R)-3-methylmorpholino)methyl)piperazin-1-yl)ethan-1-one]",390 nM
5,"C[C@@H]1CN(CC(=O)N2CC(C)(C)c3c2cc(Cc2ccc(F)cc2)c2nc(C(=O)O)cn32)[C@@H](CN2CCOC[C@H]2C)CN1 [Compound 117, 4-(4-fluorobenzyl)-8,8-dimethyl-6-(2-((2R,5R)-5-methyl-2-(((R)-3-methylmorpholino)methyl)piperazin-1-yl)acetyl)-7,8-dihydro-6H-imidazo[1,2-a]pyrrolo[2,3-e]pyridine-2-carboxylic acid]",> 10000 nM
6,"CCOC(=O)c1cnn2c3c(cc(Cc4ccc(F)cc4)c12)N(C(=O)CN1C[C@@H](C)NC[C@@H]1CN1CCOC[C@H]1C)CC3(C)C [Compound 120, ethyl 4-(4-fluorobenzyl)-8,8-dimethyl-6-(2-((2R,5R)-5-methyl-2-(((R)-3-methylmorpholino)methyl)piperazin-1-yl)acetyl)-7,8-dihydro-6H-pyrazolo[1,5-a]pyrrolo[2,3-e]pyridine-3-carboxylate]",400 nM
7,"C[C@@H]1CN(CC(=O)N2CC(C)(C)c3c2cc(Cc2ccc(F)cc2)c2nc(=O)[nH]n32)[C@@H](CN2CCOC[C@H]2C)CN1 [Compound 131, 4-(4-fluorobenzyl)-8,8-dimethyl-6-(2-((2R,5R)-5-methyl-2-(((R)-3-methylmorpholino)methyl)piperazin-1-yl)acetyl)-7,8-dihydro-1H-pyrrolo[2,3-e][1,2,4]triazolo[1,5-a]pyridin-2(6H)-one]",2740 nM
8,"C[C@@H]1CN(CC(=O)N2CC(C)(C)c3c2cc(Cc2ccc(F)cc2)c2nnc(N)n32)[C@@H](CN2CCOC[C@H]2C)CN1 [Compound 136, 1-(1-amino-4-(4-fluorobenzyl)-8,8-dimethyl-7,8-dihydro-6H-pyrrolo[2,3-e][1,2,4]triazolo[4,3-a]pyridin-6-yl)-2-((2R,5R)-5-methyl-2-(((R)-3-methylmorpholino)methyl)piperazin-1-yl)ethan-1-one]",1390 nM
9,"C[C@@H]1CN(CC(=O)N2CC(C)(C)c3c2cc(C(=O)c2ccc(F)cc2)c2ncnn32)[C@@H](CN2CCOC[C@H]2C)CN1 [Compound 139, 1-(4-(4-fluorobenzoyl)-8,8-dimethyl-7,8-dihydro-6H-pyrrolo[2,3-e][1,2,4]triazolo[1,5-a]pyridin-6-yl)-2-((2R,5R)-5-methyl-2-(((R)-3-methylmorpholino)methyl)piperazin-1-yl)ethan-1-one]",710 nM

# Stronger by IC50, values ahead:
row,IC50,SMILES
1,290 nM,"Cc1nc(C)n2c3c(cc(Cc4ccc(F)cc4)c12)N(C(=O)CN1C[C@@H](C)NC[C@@H]1CN1CCOC[C@H]1C)CC3(C)C [Compound 124, 1-(4-(4-fluorobenzyl)-1,3,8,8-tetramethyl-7,8-dihydro-6H-imidazo[1,5-a]pyrrolo[2,3-e]pyridin-6-yl)-2-((2R,5R)-5-methyl-2-(((R)-3-methylmorpholino)methyl)piperazin-1-yl)ethan-1-one]"
2,200 nM,"Cc1nc(CO)c2c(Cc3ccc(F)cc3)cc3c(n12)C(C)(C)CN3C(=O)CN1C[C@@H](C)NC[C@@H]1CN1CCOC[C@H]1C [Compound 125, 1-(4-(4-fluorobenzyl)-3-(hydroxymethyl)-1,8,8-trimethyl-7,8-dihydro-6H-imidazo[1,5-a]pyrrolo[2,3-e]pyridin-6-yl)-2-((2R,5R)-5-methyl-2-(((R)-3-methylmorpholino)methyl)piperazin-1-yl)ethan-1-one]"
3,120 nM,"C[C@@H]1CN(CC(=O)N2CC(C)(C)c3c2cc(Cc2ccc(F)cc2)c2ncnn32)[C@@H](CN2CC3CC2CO3)CN1 (stereo partly drawn) [Compound 78, 2-((2R,5R)-2-((2-oxa-5-azabicyclo[2.2.1]heptan-5-yl)methyl)-5-methylpiperazin-1-yl)-1-(4-(4-fluorobenzyl)-8,8-dimethyl-7,8-dihydro-6H-pyrrolo[2,3-e][1,2,4]triazolo[1,5-a]pyridin-6-yl)ethan-1-one]"
4,87 nM,"C[C@@H]1CN(CC(=O)N2CC(C)(C)c3c2cc(Cc2ccc(F)cc2)c2ncnn32)[C@@H](CN2CCC(F)(F)C[C@H]2C)CN1 [Compound 75, 2-((2R,5R)-2-(((R)-4,4-difluoro-2-methylpiperidin-1-yl)methyl)-5-methylpiperazin-1-yl)-1-(4-(4-fluorobenzyl)-8,8-dimethyl-7,8-dihydro-6H-pyrrolo[2,3-e][1,2,4]triazolo[1,5-a]pyridin-6-yl)ethan-1-one]"
5,80 nM,"Cc1nccn1C[C@H]1CN[C@H](C)CN1CC(=O)N1CC(C)(C)c2c1cc(Cc1ccc(F)cc1)c1ncnn21 [Compound 91, 1-(4-(4-fluorobenzyl)-8,8-dimethyl-7,8-dihydro-6H-pyrrolo[2,3-e][1,2,4]triazolo[1,5-a]pyridin-6-yl)-2-((2R,5R)-5-methyl-2-((2-methyl-1H-imidazol-1-yl)methyl)piperazin-1-yl)ethan-1-one]"
6,59 nM,"C[C@@H]1CN(CC(=O)N2CC(C)(C)c3c2cc(Cc2ccc(F)cc2)c2cnc(C4CC4)n32)[C@@H](CN2CCOC[C@H]2C)CN1 [Compound 3, 1-(1-cyclopropyl-4-(4-fluorobenzyl)-8,8-dimethyl-7,8-dihydro-6H-imidazo[1,5-a]pyrrolo[2,3-e]pyridin-6-yl)-2-((2R,5R)-5-methyl-2-(((R)-3-methylmorpholino)methyl)piperazin-1-yl)ethan-1-one]"
